“Also recorded” adds a separate entry of the source.
Experiments:
[1] = MTX dose response in 6-TG selected CEM cells; assay type: cell-based; settings: human, wild type CEM T cell leukemia cells, 0.5 μM MTX, thymidine 16 μM, read-out: viable wild type (WT) cells
Experimental: CEM T cell leukemia cells modified by 8 guide RNAs targeting the HPRT1 gene were cultured for 1 week in the presence of 10 μM 6-TG, replenished with fresh 6-TG every 48-72 hours. Following the selection period and confirmation of HPRT protein reduction, the CEM cells were tested for their sensitivity to a dose range of […], methotrexate (MTX) for 3 days in the presence of thymidine 16 μM (T1895 Sigma).

[2] = system: K562 cells; test: Negative selection with MTX, transduced or transfected K562 cells; assay type: cell-based, human; settings: 0.3 μM of MTX
Experimental: Transduced or transfected K562 cells (such as those from Example 1) were cultured with or without MTX from day 0 to day 14. The medium was refreshed every 3 to 4 days. GFP was analyzed on a flow machine and the InDel % was analyzed by T7E1 assay. […] On the other hand, the population of cells was steady without MTX. FIG. 14B illustrates that the transfected K562 cells were eliminated under treatment with 0.3 μM of MTX at a faster pace as compared with the HPRT-knockdown population.

[3] = system: CEM cells; test: Negative selection with MTX or MPA, transduced or transfected CEM cells; assay type: cell-based; settings: 0.3 μM of MTX, day 0 to day 14
Experimental: Transduced or transfected CEM cells (such as those from Example 1) were cultured with or without MTX from day 0 to day 14. The medium was refreshed every 3 to 4 days. GFP was analyzed on flow machine and InDel % was analyzed by T7E1 assay.

[4] = system: HPRT protein; test: Western blot of HPRT protein in gRNA modified CEM cells; assay type: cell-based, human
Experimental: (§1) CEM T cell leukemia cells were electroporated (1600V, 10 ms pulse width, 3 pulses by using the Neon Transfection system) with ribonucleoprotein (RNP) complexes containing guide RNA (see Example 21) designed in-house and obtained from Integrated DNA Technologies (IDT), together with Cas9 and tracrRNA. Cells confirmed to be transfected with the gRNA via the use of the tracr RNA (24 hours post electroporation) were purified using fluorescence activated cells sorting (FACS) prior to culture for a further 72 hours, followed by assessment of cell survival when challenged with increasing concentrations of 6-thioguanine (6-TG) compared to wild type (unmodified) CEM cells.
Unmodified and modified CEM cells were also used for isolation of protein and detection of the HPRT protein using Western blot (FIG. 39, top panel). […] Actin protein detection (FIG. 39, bottom panel) was used as a protein loading control.
as §1, with “(gRNA; legend)” for “(see Example 21)”, “10 days in the presence” for “a further 72 hours, followed by assessment”, “10 uM 6-TG, replenished” for “cell survival when challenged”, “fresh 6-TG every 48-72 hours.” for “increasing concentrations of 6-thioguanine (6-TG) compared to wild type (unmodified) CEM cells.”
Following the selection period, protein was extracted from each cell and used for western blot-based detection of the HPRT protein. Detection of beta-actin was used as a protein loading control (Actin Antibody (ACTBD11B7): sc-81178. Santa Cruz).

[5] = system: primary human T cells; test: MTX dose response in 6-TG selected primary human T cells; assay type: cell-based; settings: primary human T cells after 12 days 1 μM 6-TG, MTX dose range 2 days, thymidine 16 μM
Experimental: Primary human T cells modified using guide RNAs targeting the HPRT1 gene and subsequently placed under selection pressure for 12 days with 1 μM 6-TG, with 6-TG replenished every 2 to 3 days, were subjected to a dose range of MTX in the presence of thymidine 16 μM for 2 days and assessed for cell viability.

[6] = system: primary human T cells; test: 6-TG resistance of gRNA modified primary human T cells (viability); assay type: cell-based; settings: donors #9 and #10, 1 uM 6-TG, day 8 and day 13, vs unmodified
Text: FIG. 44 illustrates a method of modifying primary T-cells in accordance with one embodiment of the present disclosure. FIGS. 45A-45C illustrate 6-TG dose responses seven days following the modification of the primary T-cells in accordance with the modification methods described herein. In particular, FIGS. 45A and 45B illustrate the targeting of Exon 3 (guide RNA 13) and Exon 8 (guide RNA 21). The references “#9” and “#10” denote T-cell number and UT control (electroporated without RNP). FIG. 45C illustrates unmodified cells from donor #9 and donor #10 tested with increasing concentrations of 6-TG (day 4). It was observed that the […] primary T-cells were very sensitive to low doses of 6-TG. ICE Scores are shown below.
(§2) Peripheral blood mononuclear cells (PBMC) were isolated from Australian Red Cross Blood donor samples (n=2) via density centrifugation. […] By day 7, the original mixed PBMC population was determined to be primarily CD3+ T cells (flow cytometry; data not shown).
The cells were then cultured for about 7 and about 12 days in the presence of 1 uM 6-TG, with 6-TG replenished every about 2 to about 3 days. At each of these time points, the cells were assessed for the proportion of viable cells compared to untreated (UT) controls.

[7] = system: HPRT protein; test: Western blot of HPRT protein in gRNA modified primary T cells; assay type: cell-based, human; settings: 72 hours after electroporation
[8] = system: HPRT1 gene; test: ICE scoring (indel, knockout score) of gRNA editing in primary T cells; assay type: cell-based; settings: primary human T cells
Text: (§3) Indel Percentage—The editing efficiency (percentage of the pool with non-wild type sequence) as determined by comparing the edited trace to the control trace. In the ICE algorithm, potential editing outcomes are proposed and fitted to the observed data using linear regression.
(§4) Knockout Score—Represents the proportion of cells that have either a frameshift or 21+bp indel. This score is a useful measure for those who are interested in understanding how many of the contributing indels are likely to result in a functional Knockout (KO) of the targeted gene.
FIG. 44 illustrates a method of modifying primary T-cells in accordance with one embodiment of the present disclosure. FIGS. 45A-45C illustrate 6-TG dose responses seven days following the modification of the primary T-cells in accordance with the modification methods described herein. In particular, FIGS. 45A and 45B illustrate the targeting of Exon 3 (guide RNA 13) and Exon 8 (guide RNA 21). The references “#9” and “#10” denote T-cell number and UT control (electroporated without RNP). […]
as §2

[9] = system: CEM T cell leukemia cells; test: 6-TG selection and 6-TG challenge of gRNA modified CEM cells (cell viability); assay type: cell-based; settings: CEM, 10 μM 6-TG for 1 week, vs wild-type
Experimental: Cells confirmed to be transfected with the gRNA via the use of the tracr RNA (24 hours post electroporation) were purified using fluorescence activated cells sorting (FACS) prior to culture in 10 μM 6-TG for 1 week replenished with fresh 6-TG every 48-72 hours.
After 10 days in the presence of 10 uM 6-TG, replenished with fresh 6-TG every 48-72 hours, each cell line was challenged with increasing concentrations of 6-thioguanine (6-TG) and cell viability was compared to wild type (unmodified) CEM cells (see FIG. 40B).

[10] = system: HPRT1 gene; test: ICE scoring (indel, knockout score) of gRNA editing in CEM cells; assay type: cell-based, human
Text: The top candidate guide RNAs from Example 21 were screen in Jurkat cell lines (n=1) and validated in CEM cell lines (n=2). For instance, Jurkat cells were electroporated with a ribonucleoprotein (RNP) complex containing guide RNA (e.g. an RNP including a guide RNA having any one of SEQ ID NOS: 40-49) together with the Cas9 and tracrRNA. The methodology and analysis was the same for both Jurkat cell lines and CEM cell lines (see also, FIG. 37). Following electroporation, cell viability was measured at different concentrations of 6-TG (see FIG. 36).
as §3, §4, §1

[11] = system: CEM T cell leukemia cells; test: 6-TG dose response of gRNA modified CEM cells 72 hours after electroporation; assay type: cell-based; settings: 72 hours culture, 6-TG tested up to 40 μM, vs unmodified
Experimental: as §1

Compound | viability at 3 days, 0.5 µM [1] [%] | GFP population of transduced (HPRT knockdown) K562 cells ([2]; day 0 to day 14) | transfected (HPRT knockout) K562 cells ([2]; day 0 to day 14, compared with HPRT-knockdown population) | HPRT knockout population of CEM cells [3] | GFP population of transduced (HPRT knockdown) cells ([3]; CEM cells) | HPRT protein (Western blot) ([4]; 72 hours post-electroporation, no 6-TG selection, listed as guide 21) | HPRT protein (Western blot) ([4]; after 10 days of 6-TG selection (10 uM)) | sensitivity to MTX compared to wild-type non-modified cells (UT) [5] | proportion of viable cells under 6-TG [6] | HPRT protein (Western blot) [7] | knockout efficiency (ICE scoring) [8] | cell viability under 6-TG selection [9] | editing (ICE scoring), in words [10] | resistance to 6-TG challenge (cell survival) [11]
CN(Cc1cnc2nc(N)nc(N)c2n1)c1ccc(C(=O)N[C@@H](CCC(=O)O)C(=O)O)cc1 [MTX, methotrexate] | 60 | decreased | eliminated | eliminated at a faster pace | decreased | – | – | – | – | – | – | – | – | –
gRNA 21: sgRNA guide and PAM TATCCTACAACAAACTTGTCTGG, HPRT 1 target Exon 8 (listed as DNA, chemistry not given here) | – | – | – | – | – | reduced compared to wildtype; also recorded: detectable levels of HPRT protein | limited to no detectable levels of HPRT | increased sensitivity to MTX | increased viability | residual HPRT protein was observed | about 1% | more variable viability | efficient editing | intermediate resistance
